Results from publication PMC12598851, “Exploiting Avidity Effects for the Discovery of Low Affinity Protein-Binding Fragments” (Journal of Medicinal Chemistry, 2025).
Non-standard residues stand in square brackets, D forms with d. Residues, ends and D or L forms follow the SMILES beside them.

Key:
[1] = target: T1, Rpn2-binding surface of Rpn13 (GST-Rpn13 PRU) (Homo sapiens, UniProt Q16186); test: Competition assay with Rpn2 peptide for GST-Rpn13 PRU fusion protein; conditions: protein preincubated with Rpn2 peptide 100 μM
T1 construct: the human Rpn13 PRU (pleckstrin-like receptor for ubiquitin) domain is linked to the C-terminus of GST; His6 (C); made in house; host or cells: E. coli BL21 (DE3) codon plus RP
Description: As mentioned above, the Rpn13 PRU domain binds to the proteasome via association with a C-terminal peptide tail from Rpn2. […] The amount of protein retained on the resin was then evaluated using the same protocol described above.
This assay was conducted following the exact same procedure described above using two samples: GST-Rpn13 PRU (100 nM) alone, and GST-Rpn13 PRU (100 nM) that had been pretreated with Rpn2 peptide (100 μM) for 1 h at 4 °C. Each sample was added to separate wells of a microtiter plate.

[2] = tested on: Rpn13; conditions: peptide derived from Rpn2; cited from earlier work

T1 sequence (Q16186 18-131 limits assumed): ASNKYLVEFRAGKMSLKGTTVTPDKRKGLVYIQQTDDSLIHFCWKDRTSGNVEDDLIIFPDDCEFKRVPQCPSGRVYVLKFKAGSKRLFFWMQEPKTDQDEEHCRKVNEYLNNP

- effect of soluble Rpn2 peptide competitor on binding of GST-Rpn13 PRU [1]: strongly suppressed binding
SMILES: CC[C@H](C)[C@H](NC(=O)[C@H](Cc1ccc(O)cc1)NC(=O)[C@@H](CCC(=O)O)NC(=O)[C@H](Cc1ccccc1)NC(=O)[C@@H]1CCCN1C(=O)[C@H](CCC(=O)O)NC(=O)[C@@H]1CCCN1C(=O)[C@@H]1CCCN1C(=O)[C@H](CCC(=O)O)NC(=O)[C@@H]1CCCN1C(=O)[C@@H](CCC(=O)O)NC(=O)[C@H](CCC(N)=O)NC(=O)[C@@H]1CCCN1)C(=O)N[C@@H](CC(=O)O)C(N)=O [Rpn2 peptide, reference compound] (H-PQ[dE]PEPPEPF[dE]YID-NH2)
- affinity for Rpn13 [2]: nanomolar affinity
